Consider one compound from EP0802730B1, “PESTICIDAL COMPOUNDS” (BTG INTERNATIONAL LIMITED, priority 1995, dated 1996).

SMILES strings stand for the structures. Values after ≈ are worked out from the molar mass of the structure shown. Like-named read-outs stand apart in the source and are kept apart here.

Data set [1] has as its system Mustard beetles (PC) (Phaedon cochleariae Fab). The format is in vivo. Particulars: Tables 10, 13, 14; NA = lack of detectable activity. As for the experimental part:
A one microlitre drop of an acetone solution of the test compound was applied ventrally to adult mustard beetles using a micro drop applicator. The treated insects were maintained for 48 hours after which time kill was assessed. Two replicates each of 20 to 25 mustard beetles were used at each dose level and 5 dose levels were treated comparably. LD50 values were calculated as for houseflies.

The subject of data set [2] is Aspergillus niger. In words: Fungitoxicity in vitro on potato dextrose agar. The format is cell-based. Particulars: A. niger; 100 mg 1^-1; 4 days.
In data set [3] the test system is Myzus persicae, susceptible strain (US1L). As to the kind of experiment: Aphid dip test, susceptible strain. The format is in vivo. The protocol:
Activity against resistant (R) and susceptible (S) strains of aphid (Myzus persicae) was assessed using the following method.
Entrapment rings of fluon were painted halfway up the inside of 4 cm lengths of glass tubing (1.5 cm diameter), and squares of insect-proof gauze were attached to one end of each tube by elastic bands. Fifteen apterous adults were then gently transferred into the tubes using a sable-hair brush, and the tube sealed with a second gauze square.
Tubes containing aphids were dipped into insecticide solutions for 10 seconds, dried on blotting paper, and then inverted and tapped to cause treated aphids to fall to the unimmersed end of each tube. Handling mortality (usually zero or very slight) was scored after 1 hour, when aphids were transferred onto chinese cabbage leaf-discs (35 mm diameter) on an agar bed (25 mm in depth) in disposible plastic containers (30 mm high) and confined by applying a ring of fluon to the exposed lip of the container. Containers were store upright, without lids, in a constant environment facility maintained at 25°C under continuous room lighting. Mortality was assessed at 24, 48 and 72 hours. Two replicates of 15 aphids each were used at each dose rate and 5 or 6 dose rates were used per compound under test.
The test was carried out using a susceptible strain of aphids (US1L) collected in the field in East Anglia, UK and an extremely resistant strain of aphids (794Jz) (R3 esterase, sensitive AChE) collected from glasshouses in the UK.
The values given are % mortality corrected for control data. The control comprised the test solution without active ingredient.

Data set [4] relates to Pyricularia oryzae (=Magnaporthe grisea). The format is cell-based. The note with it: P. oryzae; 100 mg 1^-1; 7 days.
A short description of data set [5]: Mammalian toxicity, whole body LD50. The note with it: rat, in vivo; rats. The source says: In addition to the specific insecticidal and acaricidal tests described above, compounds of the present invention were submitted for further tests relating to toxicity to mammals and so-called friendly species such as Chrysloperla carnea, Aleochora bilineata and Coccinella septempunctata.

Data set [6] deals with Mites (TU) (Tetranychus urticae), susceptible strain (GSS). As to the kind of experiment: Mite immersion test, susceptible strain GSS. The data set is classed as in vivo. Particulars: 72 h, Tables 10, 13, 14, susceptible strain, NA = lack of detectable activity, read-out: TU LC50 (ppm/insect). The gist of the method:
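Groups of 25 adult female GSS-strain mites dipped 30 s in compound solution in 1:4 acetone–water, held at 21 ± 2 °C, and mortality scored at 72 h. Triplicates at 5–6 dose rates gave LC50 in ppm.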

The subject of data set [7] is Houseflies (MD) (Musca domestica). The data set is classed as in vivo. Particulars: Tables 10, 13, 14; NA = lack of detectable activity. The gist of the method: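 Female flies dosed topically on the thorax with 1 µl of compound in acetone; 6 dose rates, 2 replicates of 15 flies each. Held at 20° ± 1°C, with kill scored at 24 and 48 h. LD50 expressed as µg compound per fly.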

Data set [8] concerns Rhizoctonia solani. As to the kind of experiment: Fungitoxicity in vitro on potato dextrose agar. The format is cell-based. The note with it: R. solani; 100 mg 1^-1; 4 days.
The subject of data set [9] is Whitefly (BT) (Bemisia tabaci), susceptible strain (SUD-S). As to the kind of experiment: Whitefly residual film vial test, susceptible strain SUD-S. The data set is classed as in vivo. The note with it: 48 h, Tables 10, 13, 14, susceptible strain, NA = lack of detectable activity, read-out: BT LC50 (ppm/insect). The gist of the method:
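Thirty adult whiteflies were held for 60 min in glass vials coated with a dry compound film cast from acetone, then moved to untreated cotton leaf discs on agar at 25°C. Mortality was scored after 48 h, with three replicates at each of 5 to 7 dose levels.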

A word on the LD50: it is the dose expected to kill half of the subjects tested. Consider `CC1(C2=C(O)C(=O)c3ccccc3C2=O)CCCCC1` [Example 25, 2-hydroxy-3-(1'-methylcyclohexyl)-naphthalene-1,4-dione], for which the “PC LD50 (µg/insect)” value in [1] was found to be 5 µg/insect. The “% inhibition of growth in colony diameter in agar plates, Activity at 100 mg 1^-1” value in [2] is reported as 45%; in data set [4], 94%; in [8], 93%. The mortality at 100 ppm turned out to be 22% in [3] (read-out: MP % kill 100 ppm) and 23% in data set [3] (strain S, 100 PPM, read-out: % mortality corrected for control data). Also, the mortality at 250 ppm in data set [3] (strain S, 250 PPM, read-out: % mortality corrected for control data) amounted to 67%. In data set [5], this compound had a 50% lethal dose (LD50) of 2790 mg/kg. Also, the values for the LC50 in [6] and in [9] were 28 µg/mL (≈ 104 µM) and 0.1 µg/mL (≈ 0.37 µM), respectively. For the same compound, in [7], the “MD LD50 (µg/insect)” value is given as 1.9 µg/insect.
